# Experimental data from BindingDB's records for doi:10.1016/j.bmcl.2019.126886 (Tokyo University of Agriculture, 2020).
# Assay: Inhibition of PKCbeta in rat RBL2H3 cells assessed as inhibition of mouse anti-DNP IgE-stimulated beta-hexosaminidase release preincubated for 15 mins followed by mouse anti-DNP IgE stimulation and measured after 3 hrs by 4-nitropheny1-2-acetamide-2-deoxy-beta-glucopyranoside substrate based colorimetric method
compound,measurement,value
O=C1O/C(=C(/C(=O)O)c2ccc(O)c(O)c2)C(O)=C1c1ccc(O)c(O)c1,IC50,10.4 µM
